According to ChEMBL document CHEMBL1154097, “Novel 3,3'-diindolylmethane derivatives: synthesis and cytotoxicity, structural characterization in solid state” (Eur J Med Chem, 2009):
Active and inactive are the calls of the source. The calls are words filed in the database; no cut-off is given here.

Tests used:
[1] = tested on: IGROV-1; assay: Cytotoxicity against human IGROV1 cells; type: functional
[2] = tested on: SK-MEL-2; assay: Cytotoxicity against human SK-MEL-2 cells; type: functional
[3] = tested on: PC-3; assay: Cytotoxicity against human PC3 cells; type: functional
[4] = tested on: Malme-3M; assay: Cytotoxicity against human MALME-3M cells at 10 uM; type: functional, cell-based
[5] = tested on: UO-31; assay: Cytotoxicity against human UO31 cells; type: functional

Structure (SMILES) | Activity [1] | Activity [2] | Activity [3] | Activity [4] | Activity [5]
COc1ccc2[nH]cc(C(c3cc(F)cc(F)c3)c3c[nH]c4ccc(OC)cc34)c2c1 | -7.1% | 62.49% | 50.16% | Active | 43.23%
Fc1cc(F)cc(C(c2c[nH]c3ccccc23)c2c[nH]c3ccccc23)c1 | -6.52% | 58.84% | 67.07% | Active | 52.86%
